Results: patent US20200069648A1, “HALOALLYLAMINE PYRAZOLE DERIVATIVE INHIBITORS OF LYSYL OXIDASES AND USES THEREOF” (Pharmaxis Ltd., priority 2017, published 2020)
pIC50: −log10 of the molar value. Counter-ions that a name gives are not always drawn.

Legend:
Format in all cases: biochemical
Bovine LOX = molecular target: T1, Bovine LOX (Bos taurus, UniProt P33072); assay: LOX amine oxidase inhibition, peroxidase-coupled Amplex Red assay; conditions: 30 min preincubation at 37° C., putrescine substrate
T1 sequence (P33072 170-418): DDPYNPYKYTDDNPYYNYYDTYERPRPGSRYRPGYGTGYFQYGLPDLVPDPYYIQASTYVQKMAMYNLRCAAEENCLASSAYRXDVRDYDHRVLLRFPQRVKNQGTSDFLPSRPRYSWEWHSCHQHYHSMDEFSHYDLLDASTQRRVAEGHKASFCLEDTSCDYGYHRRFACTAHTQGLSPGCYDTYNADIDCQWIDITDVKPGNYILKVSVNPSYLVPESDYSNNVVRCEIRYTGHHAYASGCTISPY
Source text: (§1) Method to Determine the Ability of Compounds of the Invention to Inhibit LOX and LOXL1-4 from Different Sources
Lysyl oxidase (LOX) is an extracellular copper dependent enzyme which oxidizes peptidyl lysine and hydroxylysine residues in collagen and lysine residues in elastin to produce peptidyl alpha-aminoadipic-delta-semialdehydes. […] There are five LOX family members; these are LOX, LOXL1, LOXL2, LOXL3 and LOXL4. LOX and LOXL family members can be acquired as recombinant active proteins from commercial sources, or extracted from animal tissues like bovine aorta, tendons, pig skin; or prepared from cell cultures. The inhibitory effects of the compounds of the present invention were tested against the given LOX-LOXL preparation using a high-throughput coupled colorimetric method (Holt A. and Palcic M., A peroxidase-coupled continuous absorbance plate-reader assay for flavin monoamine oxidases, copper-containing amine oxidases and related enzymes. Nat. Protoc. 2006; 1: 2498-2505). The assay was developed using either 384 or 96 well format. Briefly, in a standard 384 well plate assay 25 μL of a dilution of any of the isoenzymes and orthologues in 1.2 M urea, 50 mM sodium borate buffer (pH 8.2) were added into each well in the presence of 1 μM mofegiline and 0.5 mM pargyline (to inhibit SSAO and MAO-B and MAO-A, respectively). […] Twenty five μL of a reaction mixture containing twice the KM concentration of putrescine (Sigma Aldrich, e.g. 20 mM for LOX, or 10 mM for LOXL2 and LOXL3), 120 μM Amplex Red (Sigma Aldrich) and 1.5 U/mL horseradish peroxidase (Sigma Aldrich) prepared in 1.2 M urea, 50 mM sodium borate buffer (pH 8.2) were then added to the corresponding wells. The above volumes were doubled in the case of 96 wells plate. The fluorescence (RFU) was read every 2.5 min for 30 min at a range of temperatures from 37° to 45° C., excitation 565 nm and emission 590 (Optima; BMG labtech). The slope of the kinetics for each well was calculated using MARS data analysis software (BMG labtech) and this value was used to deduce the IC50 value (Dotmatics).

Human LOXL2 = molecular target: T2, Human LOXL2 (Homo sapiens, UniProt Q9Y4K0); assay: LOXL2 amine oxidase inhibition, peroxidase-coupled Amplex Red assay; conditions: 30 min preincubation at 37° C., putrescine substrate
T2 sequence (Q9Y4K0 26-774): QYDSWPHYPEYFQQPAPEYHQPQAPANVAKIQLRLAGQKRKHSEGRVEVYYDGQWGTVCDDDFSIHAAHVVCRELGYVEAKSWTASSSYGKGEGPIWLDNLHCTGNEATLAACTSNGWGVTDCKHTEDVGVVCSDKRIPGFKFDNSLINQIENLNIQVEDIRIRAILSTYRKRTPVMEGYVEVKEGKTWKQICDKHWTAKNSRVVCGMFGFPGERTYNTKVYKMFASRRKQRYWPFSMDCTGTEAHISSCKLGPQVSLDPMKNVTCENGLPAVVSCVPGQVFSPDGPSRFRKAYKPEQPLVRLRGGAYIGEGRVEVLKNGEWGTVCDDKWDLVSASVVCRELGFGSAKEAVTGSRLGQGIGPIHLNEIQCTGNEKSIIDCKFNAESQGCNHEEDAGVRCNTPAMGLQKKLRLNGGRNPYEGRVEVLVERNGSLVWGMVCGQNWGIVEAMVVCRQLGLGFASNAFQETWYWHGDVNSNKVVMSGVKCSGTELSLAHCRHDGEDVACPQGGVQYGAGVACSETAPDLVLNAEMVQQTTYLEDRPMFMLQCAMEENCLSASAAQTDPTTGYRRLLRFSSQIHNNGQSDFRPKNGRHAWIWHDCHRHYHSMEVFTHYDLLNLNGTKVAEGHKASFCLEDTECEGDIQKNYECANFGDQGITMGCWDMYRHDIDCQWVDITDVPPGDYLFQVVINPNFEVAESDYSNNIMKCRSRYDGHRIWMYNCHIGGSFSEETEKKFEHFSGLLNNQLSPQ
Source text: as §1
Lysyl oxidase (LOX) is an extracellular copper dependent enzyme which oxidizes peptidyl lysine and hydroxylysine residues in collagen and lysine residues in elastin to produce peptidyl alpha-aminoadipic-delta-semialdehydes. […] There are five LOX family members; these are LOX, LOXL1, LOXL2, LOXL3 and LOXL4. LOX and LOXL family members can be acquired as recombinant active proteins from commercial sources, or extracted from animal tissues like bovine aorta, tendons, pig skin; or prepared from cell cultures. The inhibitory effects of the compounds of the present invention were tested against the given LOX-LOXL preparation using a high-throughput coupled colorimetric method (Holt A. and Palcic M., A peroxidase-coupled continuous absorbance plate-reader assay for flavin monoamine oxidases, copper-containing amine oxidases and related enzymes. Nat. Protoc. 2006; 1: 2498-2505). The assay was developed using either 384 or 96 well format. Briefly, in a standard 384 well plate assay 25 μL of a dilution of any of the isoenzymes and orthologues in 1.2 M urea, 50 mM sodium borate buffer (pH 8.2) were added into each well in the presence of 1 μM mofegiline and 0.5 mM pargyline (to inhibit SSAO and MAO-B and MAO-A, respectively). Test compounds were dissolved in DMSO and tested in a Concentration Response Curve (CRC) with 11 data points, typically in the micromolar or nanomolar range after incubation with the enzyme for 30 min at 37° C. Twenty five μL of a reaction mixture containing twice the KM concentration of putrescine (Sigma Aldrich, e.g. 20 mM for LOX, or 10 mM for LOXL2 and LOXL3), 120 μM Amplex Red (Sigma Aldrich) and 1.5 U/mL horseradish peroxidase (Sigma Aldrich) prepared in 1.2 M urea, 50 mM sodium borate buffer (pH 8.2) were then added to the corresponding wells. The above volumes were doubled in the case of 96 wells plate. The fluorescence (RFU) was read every 2.5 min for 30 min at a range of temperatures from 37° to 45° C., excitation 565 nm and emission 590 (Optima; BMG labtech). The slope of the kinetics for each well was calculated using MARS data analysis software (BMG labtech) and this value was used to deduce the IC50 value (Dotmatics).

Recombinant human MAO-B = molecular target: T3, Recombinant human MAO-B (Homo sapiens, UniProt P27338); assay: Human recombinant MAO-B inhibition; conditions: benzylamine 100 μM
T3 construct: purchased Sigma Aldrich
T3 sequence (P27338 1-520): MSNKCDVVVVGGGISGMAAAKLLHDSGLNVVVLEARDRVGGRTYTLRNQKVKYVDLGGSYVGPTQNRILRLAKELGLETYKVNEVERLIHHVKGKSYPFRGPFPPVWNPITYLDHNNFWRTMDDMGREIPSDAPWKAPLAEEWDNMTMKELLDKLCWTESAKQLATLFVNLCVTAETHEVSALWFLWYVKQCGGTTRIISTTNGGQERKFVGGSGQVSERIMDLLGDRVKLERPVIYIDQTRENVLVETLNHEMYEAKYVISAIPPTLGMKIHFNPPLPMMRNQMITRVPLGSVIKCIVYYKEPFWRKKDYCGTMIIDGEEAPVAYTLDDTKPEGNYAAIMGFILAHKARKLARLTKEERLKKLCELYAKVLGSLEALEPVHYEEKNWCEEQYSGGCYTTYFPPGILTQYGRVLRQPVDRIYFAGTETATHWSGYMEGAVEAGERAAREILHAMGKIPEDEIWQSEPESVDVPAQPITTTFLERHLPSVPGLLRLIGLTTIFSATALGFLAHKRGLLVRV
Protocol: Method to Determine the Ability of Compounds of Formula I to Inhibit Human Recombinant MAO-B
The specificity of the compounds of this invention was tested by determining their ability to inhibit MAO-B activities in vitro. Recombinant human MAO-B (0.06 mg/mL; Sigma Aldrich) was used as source of MAO-B enzyme activities. The assay was performed in a similar way as for human SSAO/VAP-1 (Example 46) except, the substrate benzylamine was used at 100 μM.

pIC50 (Bovine LOX) | pIC50 (Human LOXL2) | pIC50 (Recombinant human MAO-B) | SMILES
> 5.00 | > 6.00 | – | Cc1nn(C/C(F)=C/CN)c(Cl)c1-c1cccc(S(=O)(=O)N(C)C)c1 [Compound 35, (Z)-3-(1-(4-amino-2-fluorobut-2-en-1-yl)-5-chloro-3-methyl-1H-pyrazol-4-yl)-N,N-dimethylbenzenesulfonamide hydrochloride]
> 5.00 | > 6.00 | – | CC(C)c1nn(Cc2ccc(S(=O)(=O)N(C)C)c(Cl)c2)c(C(C)C)c1C/C(F)=C/CN [Compound 64, (Z)-4-((4-(4-amino-2-fluorobut-2-en-1-yl)-3,5-diisopropyl-1H-pyrazol-1-yl)methyl)-2-chloro-N,N-dimethylbenzenesulfonamide hydrochloride]
> 5.00 | > 6.00 | – | Cc1nn(C/C(F)=C/CN)c(C(F)(F)F)c1Cc1ccc(S(=O)(=O)N(C)C)c(Cl)c1 [Compound 56, (Z)-4-((1-(4-amino-2-fluorobut-2-en-1-yl)-3-methyl-5-(trifluoromethyl)-1H-pyrazol-4-yl)methyl)-2-chloro-N,N-dimethylbenzenesulfonamide hydrochloride]
> 5.00 | > 6.00 | – | Cc1nn(C/C(F)=C/CN)c(C)c1Cc1ccc(S(N)(=O)=O)c(Cl)c1 [Compound 51, (Z)-4-((1-(4-amino-2-fluorobut-2-en-1-yl)-3,5-dimethyl-1H-pyrazol-4-yl)methyl)-2-chlorobenzenesulfonamide hydrochloride]
> 5.00 | > 6.00 | – | Cc1nn(Cc2ccc(S(=O)(=O)N(C)C)c(Cl)c2)c(C)c1C/C(F)=C/CN [Compound 46, (Z)-4-((4-(4-amino-2-fluorobut-2-en-1-yl)-3,5-dimethyl-1H-pyrazol-1-yl)methyl)-2-chloro-N,N-dimethylbenzenesulfonamide hydrochloride]
> 5.00 | > 6.00 | – | Cc1c(Cc2ccc(S(=O)(=O)N(C)C)cc2)c(C(C)(C)C)nn1C/C(F)=C/CN [Compound 50, (Z)-4-((1-(4-amino-2-fluorobut-2-en-1-yl)-3-(tert-butyl)-5-methyl-1H-pyrazol-4-yl)methyl)-N,N-dimethylbenzenesulfonamide hydrochloride]
> 5.00 | > 6.00 | – | CS(=O)(=O)c1cccc(-c2cnn(C/C(F)=C/CN)c2)c1 [Compound 67, (Z)-3-fluoro-4-(4-(3-(methylsulfonyl)phenyl)-1H-pyrazol-1-yl)but-2-en-1-amine hydrochloride]
> 5.00 | > 6.00 | – | Cc1nn(C/C(F)=C/CN)c(C(C)C)c1Cc1ccc(S(=O)(=O)N(C)C)c(Cl)c1 [Compound 65, (Z)-4-((1-(4-amino-2-fluorobut-2-en-1-yl)-5-isopropyl-3-methyl-1H-pyrazol-4-yl)methyl)-2-chloro-N,N-dimethylbenzenesulfonamide hydrochloride]
> 5.00 | > 6.00 | – | Cc1nn(C/C(F)=C/CN)c(CO)c1Cc1ccc(S(=O)(=O)N(C)C)cc1Cl [Compound 55, (Z)-4-((1-(4-amino-2-fluorobut-2-en-1-yl)-5-(hydroxymethyl)-3-methyl-1H-pyrazol-4-yl)methyl)-3-chloro-N,N-dimethylbenzenesulfonamide hydrochloride]
> 5.00 | > 6.00 | – | Cc1nn(C/C(F)=C/CN)c(C)c1Cc1ccc(NS(C)(=O)=O)cc1 [Compound 48, (Z)—N-(4-((1-(4-amino-2-fluorobut-2-en-1-yl)-3,5-dimethyl-1H-pyrazol-4-yl)methyl)phenyl)methane-sulfonamide hydrochloride]
> 5.00 | > 6.00 | – | CNS(=O)(=O)c1ccc(Cc2c(C)nn(C/C(F)=C/CN)c2C)cc1OC(F)(F)F [Compound 45, (Z)-4-((1-(4-amino-2-fluorobut-2-en-1-yl)-3,5-dimethyl-1H-pyrazol-4-yl)methyl)-N-methyl-2-(trifluoromethoxy)benzenesulfonamide hydrochloride]
> 5.00 | > 6.00 | – | Cc1c(Cc2ccc(S(=O)(=O)N(C)C)c(Cl)c2)c(C(C)C)nn1C/C(F)=C/CN [Compound 66, (Z)-4-((1-(4-amino-2-fluorobut-2-en-1-yl)-3-isopropyl-5-methyl-1H-pyrazol-4-yl)methyl)-2-chloro-N,N-dimethylbenzenesulfonamide hydrochloride]
< 5.00 | > 6.00 | < 4.52 | Cc1nn(C/C(F)=C/CN)c(C(C)O)c1Cc1ccc(S(=O)(=O)N(C)C)c(Cl)c1 (stereo not drawn) [Compound 36, (Z)-4-((1-(4-amino-2-fluorobut-2-en-1-yl)-5-(1-hydroxyethyl)-3-methyl-1H-pyrazol-4-yl)methyl)-2-chloro-N,N-dimethylbenzenesulfonamide]
